Patent US20260337177A1, “TEAD CORE INHIBITORS FOR CANCER THERAPEUTICS” (University of Florida Research Foundation, Incorporated, priority 2023, published 2026)
Where two headings read alike, the source gives them in different places.

Tests used:
TEADs = experiment: TEAD-specific 8×GTIIC-luciferase reporter assay; assay type: cell-based; conditions: for inhibition at 10 µM: 8×GTIIC-luciferase, read-out: Luciferase reporter assay inhibitory rate
Experimental: A series of compounds featuring a chloromethyl ketone moiety were synthesized (Schemes 1-4). The inhibitory rate of this series of compounds was tested using 8×GTIIC-luciferase reporter assay at 10 μM.
Next, the inhibition of TEAD transcription activity of compounds was tested varying the dosage using the 8×GTIIC-luciferase reporter assay. […] The aim was to determine whether its inhibition of TEAD transcription can lead to downregulation of the YAP-TEAD target genes. CTGF is one of the best characterized (bona fide) target gene of YAP and TAZ.
To further investigate the mechanism of the inhibitory effect of compounds in Huh7 cells, TEADs specific luciferase reporter assays were performed with compounds 22 and 12 at several concentrations. […] TEAD downstream gene expression patterns were evaluated in liver cancer cells Huh7, which has been evidenced with relative high expression of YAP and TEAD2.
HEK 293T cells were plated at 2×10^4 cells/well in a 96 well microplate and were transfected with 50 ng of 8×GTIIC-luciferase plasmid (Addgene #34615) and 0.5 ng of pRL-CMV (Promega #E226A) by using lipofectamine 3000 (Life Technologies #L3000). The 8×GTIIc-luciferase reporter is a Yap/Taz-activity reporter containing eight TEAD consensus binding sequences. After 6 h, transfected cells were treated with various concentrations of compounds or DMSO control. Luciferase signals were measured using the Dual Luciferase Reporter Assay System (Promega, E1960) according to the manufacturer's instructions. Experiments were performed in triplicate and repeated at least three times.

AML12 cells = experiment: AML12 normal liver cell growth inhibition (CCK8); assay type: cell-based; conditions: for Inhibitory rate, AML12 (inhibitory percentage of AML12 cell growth): 10 μM, 3 days
Huh7 cells = experiment: Huh7 cell proliferation assay (CCK8); assay type: cell-based, human; conditions: Homo sapiens
Experimental: CCK8 assay kit was used to determine antiproliferative activity of synthesized compounds against Huh7 cell line. First, Huh7 cells were seeded into 96-well plates at a density of 3000 cells/well and incubated overnight. Cells were then co-incubated with compounds at 8 concentrations for 72 h. Then, the cell proliferation was determined by the CCK8 kit according to the standard protocol. Experiments were performed in triplicate.

Huh7 xenograft = experiment: Huh7 mouse xenograft model, antitumor efficacy; assay type: in vivo, NSG mouse; conditions: Sorafenib 100 mg/kg oral every three days for 24 days
Experimental: Based on the favorable in vitro potency and low toxicity, the in vivo antitumor efficacy of compound 22 was further evaluated in the NSG mouse (NOD scid gamma mouse) xenograft model from human Huh7 cells. Sorafenib, the first-line treatment for primary hepatocellular carcinoma (HCC) patients, served as the control. Compound 22 was tested as a monotherapy and in combination with Sorafenib.
The animals were administered 10 mg/kg of compound 22 twice a week for four weeks via intraperitoneal (IP) injection.
The mice were administered 50 mg/kg of compound 22 every three day for 24 days via intraperitoneal (IP) injection. Sorafenib was administered orally at a dose of 100 mg/kg following the same schedule.
Tumors were implanted by subcutaneous injection of 5×10^6 Huh7 cells in 100 μL of PBS containing 10% matrix gel (Coming, NY, USA), into the right flank of the mouse. When the tumor volume reached about 85 mm^3, mice were randomized into the vehicle control group (n=5) and a treatment group (n=5). The vehicle group (n=5) received the vehicle only (50% phosal 50 PG, 45% miglyol 810 N and 5% polysorbate 80), while the treatment group (n=5) was given compound 22 (50 mg/kg in 50% phosal 50 PG, 45% miglyol 810 N and 5% polysorbate 80) via IP injection every three days. After 24 days, mice were euthanized. Sorafenib (100 mg/kg, every three day) was dissolved in 75% Ethanol and Cremophor EL (1:1) and administered directly into the animals' stomachs using a gastric probe. Tumor size and body weight were measured every 3 days, and tumor volume was estimated using the formula volume=½×length×width^2. Tumor growth inhibition value (TGI) was calculated as TGI (%) [1−Vt/Vc]×100, where Vc and Vt were […].

[1] = Huh-7, 72 h, 3 days, CCK8, mean ± SD of three independent experiments, read-out: Cell proliferation assay IC50, Huh7

Structure (SMILES) | inhibition at 10 µM (TEADs) | Inhibitory rate, AML12 (inhibitory percentage of AML12 cell growth) (AML12 cells) | IC50 (Huh7 cells; [1]) | TEAD transcription inhibition, luciferase reporter (TEADs; varying dosage, FIGS. 3A-3B) | Toxicity towards normal liver cell line AML12 (AML12 cells) | IC50 (Huh7 cells; Huh-7, Table 3 column is in μM, read-out: Huh7 cell growth inhibition / proliferation IC50) | Tumor growth inhibition (TGI) rate (Huh7 xenograft)
O=C(CCl)c1c[nH]c2cc(Cl)c(OCc3ccccc3)cc12 [Compound 1, 1-(5-(benzyloxy)-6-chloro-1H-indol-3-yl)-2-chloroethan-1-one] | 74.6% | 36.2% | 2.7 ± 0.2 µM |  |  |  | 
O=C(CCl)c1c[nH]c2cc(Cl)c(OCc3cccc4ccccc34)cc12 [Compound 3, 2-chloro-1-(6-chloro-5-(naphthalen-1-ylmethoxy)-1H-indol-3-yl)ethan-1-one] | 69.4% | 50.3% | 1.6 ± 0.3 µM |  |  |  | 
COc1cc2[nH]cc(C(=O)CCl)c2cc1OCc1ccccc1 [Compound 4, 1-(5-(benzyloxy)-6-methoxy-1H-indol-3-yl)-2-chloroethan-1-one] | 53.7% | 46.1% | 3.8 ± 0.4 µM |  |  |  | 
COc1cc2[nH]cc(C(=O)CCl)c2cc1OCc1ccc2ccccc2c1 [Compound 5, 2-chloro-1-(6-methoxy-5-(naphthalen-2-ylmethoxy)-1H-indol-3-yl)ethan-1-one] | 93.9% | 77.4% | 2.4 ± 0.5 µM | potent inhibition activity | high toxicity |  | 
COc1cc2[nH]cc(C(=O)CCl)c2cc1OCc1cccc2ccccc12 [Compound 6, 2-chloro-1-(6-methoxy-5-(naphthalen-1-ylmethoxy)-1H-indol-3-yl)ethan-1-one] | 64.5% | 62.1% | 2.5 ± 0.8 µM |  |  |  | 
O=C(CCl)c1c[nH]c2ccc(OCc3ccc4ccccc4c3)cc12 [Compound 7, 2-chloro-1-(5-(naphthalen-2-ylmethoxy)-1H-indol-3-yl)ethan-1-one] | 5.3% |  | > 20 µM |  |  |  | 
O=C(CCl)c1c[nH]c2ccc(OCc3ccccc3)cc12 [Compound 8, 1-(5-(benzyloxy)-1H-indol-3-yl)-2-chloroethan-1-one] | 20.5% |  | 10.5 ± 0.9 µM |  |  |  | 
C=CC(=O)NCc1c[nH]c2cc(Cl)c(OCc3ccc4ccccc4c3)cc12 [Compound 9, N-((6-chloro-5-(naphthalen-2-ylmethoxy)-1H-indol-3-yl)methyl)acrylamide] | 1.5% | 0% | 30.2 ± 2.5 µM |  |  |  | 
C=CC(=O)NCc1c[nH]c2cc(Cl)c(OCc3cccc4ccccc34)cc12 [Compound 10, N-((6-chloro-5-(naphthalen-1-ylmethoxy)-1H-indol-3-yl)methyl)acrylamide] | 10.6% | 0% | 14.4 ± 1.2 µM |  |  |  | 
C=CC(=O)NCc1c[nH]c2cc(Cl)c(OCc3ccccc3)cc12 [Compound 11, N-((5-(benzyloxy)-6-chloro-1H-indol-3-yl)methyl)acrylamide] |  | 0% | > 50 µM |  |  |  | 
O=C(CCl)NCc1c[nH]c2cc(Cl)c(OCc3ccc4ccccc4c3)cc12 [Compound 13, 2-chloro-N-((6-chloro-5-(naphthalen-2-ylmethoxy)-1H-indol-3-yl)methyl)acetamide] | 67.4% | 43.4% | 5.7 ± 1.3 µM |  |  |  | 
O=C(CCl)NCc1c[nH]c2cc(Cl)c(OCc3cccc4ccccc34)cc12 [Compound 14, 2-chloro-N-((6-chloro-5-(naphthalen-1-ylmethoxy)-1H-indol-3-yl)methyl)acetamide] | 81.5% | 54.1% | 0.8 ± 0.2 µM |  | significant cytotoxicity | 0.8 µM | 
O=C(CCl)NCc1c[nH]c2cc(Cl)c(OCc3cccc(C(F)(F)F)c3)cc12 [Compound 15, 2-chloro-N-((6-chloro-5-((3-(trifluoromethyl)benzyl)oxy)-1H-indol-3-yl)methyl) acetamide] | 47.9% | 41.1% | 8.3 ± 0.8 µM |  |  |  | 
N#C/C(=C\c1c[nH]c2cc(Cl)c(OCc3ccccc3)cc12)C(N)=O [Compound 16, (E)-3-(5-(benzyloxy)-6-chloro-1H-indol-3-yl)-2-cyanoacrylamide] |  | 0% | > 50 µM |  |  |  | 
N#C/C(=C\c1c[nH]c2cc(Cl)c(OCc3ccc4ccccc4c3)cc12)C(N)=O [Compound 17, (E)-3-(6-chloro-5-(naphthalen-2-ylmethoxy)-1H-indol-3-yl)-2-cyanoacrylamide] | 47.3% | 60.2% | 4.1 ± 0.6 µM |  |  |  | 
N#C/C(=C\c1c[nH]c2cc(Cl)c(OCc3cccc4ccccc34)cc12)C(N)=O [Compound 18, (E)-3-(6-chloro-5-(naphthalen-1-ylmethoxy)-1H-indol-3-yl)-2-cyanoacrylamide] | 51.3% | 70.3% |  |  |  |  | 
N#C/C(=C\c1c[nH]c2cc(Cl)c(OCC3CCC(F)(F)CC3)cc12)C(N)=O [Compound 19, (E)-3-(6-chloro-5-((4,4-difluorocyclohexyl)methoxy)-1H-indol-3-yl)-2-cyanoacrylamide] | 60.1% | 30.1% | 5.3 ± 0.5 µM |  |  |  | 
N#C/C(=C\c1c[nH]c2cc(Cl)c(OCc3ccc4ccccc4n3)cc12)C(N)=O [Compound 20, (E)-3-(6-chloro-5-(quinolin-2-ylmethoxy)-1H-indol-3-yl)-2-cyanoacrylamide] |  | 0% | 68.7 ± 5.4 µM |  |  |  | 
N#C/C(=C\c1c[nH]c2cc(Cl)c(OCc3cccc(C(F)(F)F)c3)cc12)C(N)=O [Compound 21, 3-(6-chloro-5-((3-(trifluoromethyl)benzyl)oxy)-1H-indol-3-yl)-2-cyanoacrylamide] | 59.7% | 97.1% |  |  |  |  | 
O=C(CCl)c1c[nH]c2cc(Cl)c(OCc3ccc(C(F)(F)F)cc3)cc12 [Compound 23, 2-chloro-1-(6-chloro-5-((4-(trifluoromethyl)benzyl)oxy)-1H-indol-3-yl)ethan-1-one] |  |  | 16.9 µM |  |  |  | 
O=C(CCl)c1c[nH]c2cc(Cl)c(OCc3ccc(C(F)(F)F)c(F)c3)cc12 [Compound 24, 2-chloro-1-(6-chloro-5-((3-fluoro-4-(trifluoromethyl)benzyl)oxy)-1H-indol-3-yl)ethan-1-one] |  |  | 1.8 µM |  |  |  | 
C=C(CN(C)C)C(=O)NCc1c[nH]c2cc(Cl)c(OCc3ccccc3)cc12 [Compound 25, N-((5-(benzyloxy)-6-chloro-1H-indol-3-yl)methyl)-2-((dimethylamino)methyl) acrylamide] | 71.8% | 37.2% | 2 ± 0.7 µM |  |  |  | 
CNC(=O)c1cc(Oc2ccc(NC(=O)Nc3ccc(Cl)c(C(F)(F)F)c3)cc2)ccn1 [Sorafenib, reference compound] |  |  |  |  |  |  | 76%
